Where a name gives a salt, the structure may show the parent alone. Read-outs that look alike come from different tables or passages of the source.
How the values were obtained:
human TLR8 = human TLR8 (Homo sapiens (Human), UniProt Q9NR97); assay: TLR8 inhibition reporter assay (HEK-Blue SEAP reporter, R848 stimulation);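 further: SEAP driven by IFN-β minimal promoter with NF-κB and AP-1 sites, 22 h incubation, compounds 0.05 nM–50 µM, inhibition scaled between agonist plus DMSO and reference inhibitor wells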
Protocol: (§1) HEK-Blue™-cells (Invivogen) overexpressing human TLR7, TLR8 or TLR9 receptors were used for screening inhibitors of these receptors using an inducible SEAP (secreted embryonic alkaline phosphatase) reporter gene under the control of the IFN-β minimal promoter fused to five NF-κB and AP-1-binding sites. Briefly, cells are seeded into Greiner 384 well plates (15000 cells per well for TLR7, 20,000 for TLR8 and 25,000 for TLR9) and then treated with test compounds in DMSO to yield a final dose response concentration range of 0.05 nM-50 μM. After a 30 minute compound pre-treatment at room temperature, the cells are then stimulated with a TLR7 ligand (gardiquimod at a final concentration of 7.5 μM), TLR8 ligand (R848 at a final concentration of 15.9 μM) or TLR9 ligand (ODN2006 at a final concentration of 5 nM) to activate NF-κB and AP-1 which induce the production of SEAP. After a 22 hour incubation at 37° C., 5% CO2, SEAP levels are determined with the addition of HEK-Blue™ Detection reagent (Invivogen), a cell culture medium that allows for detection of SEAP, according to manufacturer's specifications.

human TLR7 = human TLR7 (Homo sapiens (Human), UniProt Q9NYK1); assay: TLR7 inhibition reporter assay (HEK-Blue SEAP reporter, gardiquimod stimulation); type: cell-based; conditions: HEK-Blue cells overexpressing human TLR7, gardiquimod 7.5 μM
human TLR9 = human TLR9 (Homo sapiens (Human), UniProt Q9NR96); assay: TLR9 inhibition reporter assay (HEK-Blue SEAP reporter, ODN2006 stimulation);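 further: SEAP reporter under IFN-β minimal promoter with five NF-κB and AP-1 sites, 22 h incubation, compounds 0.05 nM–50 µM, inhibition relative to agonist plus DMSO versus known inhibitor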
Protocol: as §1

[1] = read-out: TLR8 IC50, HEK-Blue cells overexpressing human TLR8, R848 15.9 μM, SEAP reporter
[2] = read-out: TLR9 IC50, HEK-Blue cells overexpressing human TLR9, ODN2006 5 nM, SEAP reporter

Chain of human TLR8 (Q9NR97 27-1041): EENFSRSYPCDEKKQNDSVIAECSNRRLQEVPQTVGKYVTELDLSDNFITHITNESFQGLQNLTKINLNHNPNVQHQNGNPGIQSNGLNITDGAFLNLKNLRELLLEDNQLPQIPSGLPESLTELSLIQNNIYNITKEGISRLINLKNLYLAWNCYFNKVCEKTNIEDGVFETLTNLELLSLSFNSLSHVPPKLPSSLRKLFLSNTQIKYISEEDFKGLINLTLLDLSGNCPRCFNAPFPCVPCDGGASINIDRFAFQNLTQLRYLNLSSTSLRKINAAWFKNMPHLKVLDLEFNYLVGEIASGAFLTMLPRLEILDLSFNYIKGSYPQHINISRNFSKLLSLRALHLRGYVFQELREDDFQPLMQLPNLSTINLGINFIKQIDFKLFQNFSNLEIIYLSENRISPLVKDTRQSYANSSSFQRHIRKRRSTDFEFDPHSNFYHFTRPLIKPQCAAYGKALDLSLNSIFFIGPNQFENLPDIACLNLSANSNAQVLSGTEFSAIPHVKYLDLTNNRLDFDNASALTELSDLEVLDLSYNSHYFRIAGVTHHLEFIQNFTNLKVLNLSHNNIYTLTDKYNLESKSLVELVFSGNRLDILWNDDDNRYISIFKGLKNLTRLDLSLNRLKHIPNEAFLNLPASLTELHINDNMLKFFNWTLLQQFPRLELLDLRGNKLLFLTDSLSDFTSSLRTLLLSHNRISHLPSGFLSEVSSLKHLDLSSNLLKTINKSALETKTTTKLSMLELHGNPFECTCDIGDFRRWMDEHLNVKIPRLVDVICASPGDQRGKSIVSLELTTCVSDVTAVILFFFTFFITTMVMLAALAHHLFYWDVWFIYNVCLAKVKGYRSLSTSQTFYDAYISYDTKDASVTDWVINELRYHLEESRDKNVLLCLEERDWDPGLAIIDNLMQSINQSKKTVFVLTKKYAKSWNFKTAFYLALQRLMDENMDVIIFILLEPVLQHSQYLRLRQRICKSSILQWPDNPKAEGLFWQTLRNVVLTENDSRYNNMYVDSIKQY
Chain of human TLR7 (Q9NYK1 27-1049): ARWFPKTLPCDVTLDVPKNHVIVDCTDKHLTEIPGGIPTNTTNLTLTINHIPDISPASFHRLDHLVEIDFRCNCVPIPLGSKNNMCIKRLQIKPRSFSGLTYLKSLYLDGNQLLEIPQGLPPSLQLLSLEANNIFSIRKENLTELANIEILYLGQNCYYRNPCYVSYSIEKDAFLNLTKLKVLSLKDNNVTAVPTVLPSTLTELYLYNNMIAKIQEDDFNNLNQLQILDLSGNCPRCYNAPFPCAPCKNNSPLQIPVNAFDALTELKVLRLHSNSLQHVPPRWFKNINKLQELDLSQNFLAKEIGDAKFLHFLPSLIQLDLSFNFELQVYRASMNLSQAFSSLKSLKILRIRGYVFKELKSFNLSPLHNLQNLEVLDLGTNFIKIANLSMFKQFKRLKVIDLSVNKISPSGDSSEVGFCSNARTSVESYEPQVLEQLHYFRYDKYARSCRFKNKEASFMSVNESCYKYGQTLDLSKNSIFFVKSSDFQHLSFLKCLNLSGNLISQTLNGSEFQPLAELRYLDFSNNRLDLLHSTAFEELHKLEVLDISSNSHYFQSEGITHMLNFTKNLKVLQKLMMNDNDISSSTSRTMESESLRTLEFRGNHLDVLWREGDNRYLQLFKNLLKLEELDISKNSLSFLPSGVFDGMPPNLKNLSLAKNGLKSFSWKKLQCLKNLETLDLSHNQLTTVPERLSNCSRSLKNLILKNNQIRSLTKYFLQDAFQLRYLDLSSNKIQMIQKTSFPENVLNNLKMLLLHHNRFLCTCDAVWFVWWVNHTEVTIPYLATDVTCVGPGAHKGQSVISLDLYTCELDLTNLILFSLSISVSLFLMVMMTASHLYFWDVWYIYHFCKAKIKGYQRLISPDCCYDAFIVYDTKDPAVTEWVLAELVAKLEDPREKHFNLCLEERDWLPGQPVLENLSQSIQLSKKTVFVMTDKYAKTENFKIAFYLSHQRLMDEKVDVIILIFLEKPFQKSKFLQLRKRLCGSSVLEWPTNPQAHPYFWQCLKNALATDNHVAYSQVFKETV
Chain of human TLR9 (Q9NR96 26-1032): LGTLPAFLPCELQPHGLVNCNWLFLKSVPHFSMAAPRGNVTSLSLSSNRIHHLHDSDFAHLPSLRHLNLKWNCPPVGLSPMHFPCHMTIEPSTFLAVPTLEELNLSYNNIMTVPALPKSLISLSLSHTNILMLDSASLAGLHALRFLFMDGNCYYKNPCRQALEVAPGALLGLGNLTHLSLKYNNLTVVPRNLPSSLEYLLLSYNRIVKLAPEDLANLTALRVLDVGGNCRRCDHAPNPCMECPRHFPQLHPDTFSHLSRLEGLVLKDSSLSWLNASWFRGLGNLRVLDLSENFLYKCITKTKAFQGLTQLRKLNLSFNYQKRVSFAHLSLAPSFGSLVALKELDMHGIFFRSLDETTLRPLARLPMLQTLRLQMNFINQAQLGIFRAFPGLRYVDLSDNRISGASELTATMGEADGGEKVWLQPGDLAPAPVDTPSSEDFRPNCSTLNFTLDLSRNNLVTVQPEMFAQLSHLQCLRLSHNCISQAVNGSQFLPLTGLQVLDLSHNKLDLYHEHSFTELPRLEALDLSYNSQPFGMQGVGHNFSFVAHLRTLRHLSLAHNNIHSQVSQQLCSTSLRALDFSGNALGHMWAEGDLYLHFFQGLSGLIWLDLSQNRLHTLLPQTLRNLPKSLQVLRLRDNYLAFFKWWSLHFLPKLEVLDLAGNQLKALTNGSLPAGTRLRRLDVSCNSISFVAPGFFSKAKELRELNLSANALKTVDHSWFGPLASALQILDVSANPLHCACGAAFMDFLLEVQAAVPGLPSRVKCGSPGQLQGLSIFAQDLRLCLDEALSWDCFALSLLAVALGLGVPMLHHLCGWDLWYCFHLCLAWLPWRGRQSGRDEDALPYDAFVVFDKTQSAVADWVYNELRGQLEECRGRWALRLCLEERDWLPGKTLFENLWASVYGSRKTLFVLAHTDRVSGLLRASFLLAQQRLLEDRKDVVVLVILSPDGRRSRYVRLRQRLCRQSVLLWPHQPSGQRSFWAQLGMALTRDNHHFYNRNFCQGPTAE

Row | IC50 (human TLR8; [1]) | IC50 (human TLR7) | IC50 (human TLR9; [2]) | IC50 (human TLR8) | IC50 (human TLR9) | SMILES
1 | 15 nM | 751 nM | 9670 nM |  |  | CCc1c(-c2ccc(OC)c(OC)c2)[nH]c2ccc(C(=O)N3CCN(CCN4CCOCC4)CC3)cc12 [Example 42, (2-(3,4-dimethoxyphenyl)-3-ethyl-1H-indol-5-yl)(4-(2-morpholinoethyl)piperazin-1-yl)methanone]
2 | 28 nM | 469 nM | 1570 nM |  |  | CCc1c(-c2ccnc(C)c2)[nH]c2ccc(C(=O)N3CC4CN(C(C)C)CC4C3)cc12 (stereo not drawn) [Example 86, (3-ethyl-2-(2-methylpyridin-4-yl)-1H-indol-5-yl)(5-isopropylhexahydropyrrolo[3,4c]pyrrol-2(1H)-yl)methanone]
3 | 496 nM | 223 nM | 1350 nM |  |  | Cc1cc(-c2[nH]c3ccc(C(C)C(=O)NC4CCC5CNCC54)cc3c2C(C)C)ccn1 (stereo not drawn) [Example 187, 2-(3-isopropyl-2-(2-methylpyridin-4-yl)-1H-indol-5-yl)-N-(octahydrocyclopenta[c]pyrrol-4-yl)propanamide]
4 | 464 nM | 801 nM | 13600 nM |  |  | CCc1c(-c2ccc(OC)c(OC)c2)[nH]c2ccc(C(=O)N3CCC(n4c(=O)[nH]c5ccccc54)CC3)cc12 [Example 63, 1-(1-(2-(3,4-dimethoxyphenyl)-3-ethyl-1H-indole-5-carbonyl)piperidin-4-yl)-1,3-dihydro-2H-benzo[d]imidazol-2-one]
5 | 70 nM | 74 nM | 1870 nM |  |  | Cc1cc(-c2[nH]c3ccc(C(C)C(=O)N4CCCC5(CCCCC5N)C4)cc3c2C(C)C)ccn1 (stereo not drawn) [Example 201, 1-(7-amino-2-azaspiro[5.5]undecan-2-yl)-2-(3-isopropyl-2-(2-methylpyridin-4-yl)-1H-indol-5-yl)propan-1-one]
6 | 303 nM | 443 nM | 1210 nM |  |  | Cc1cc(-c2[nH]c3ccc(C(C)C(=O)N4CCC(CN)C4)cc3c2C(C)C)ccn1 (stereo not drawn) [Example 199, 1-(3-(aminomethyl)pyrrolidin-1-yl)-2-(3-isopropyl-2-(2-methylpyridin-4-yl)-1H-indol-5-yl)propan-1-one]
7 | 277 nM | 17 nM | 3050 nM |  |  | Cc1cc(-c2[nH]c3ccc(C(C)(C)C(=O)N4CC5CN(C)CC5C4)cc3c2C(C)C)ccn1 (stereo not drawn) [Example 149, 2-(3-isopropyl-2-(2-methylpyridin-4-yl)-1H-indol-5-yl)-2-methyl-1-(5-methylhexahydropyrrolo[3,4-c]pyrrol-2(1H)-yl)propan-1-one]
8 | 96 nM | 103 nM | 685 nM |  |  | Cc1cc(-c2[nH]c3ccc(C(C)C(=O)N(C)C4CCCNC4)cc3c2C(C)C)ccn1 (stereo not drawn) [Example 209, 2-(3-isopropyl-2-(2-methylpyridin-4-yl)-1H-indol-5-yl)-N-methyl-N-(piperidin-3-yl)propanamide]
9 | 30 nM | 45 nM | > 50000 nM |  |  | CNC(=O)c1ccc2[nH]c(-c3cc(C)nc(C)c3)c(C(C)C)c2c1 [Example 97, 2-(2,6-dimethylpyridin-4-1)-3-isopropyl-N-methyl-1H-indole-5-carboxamide]
10 | 545 nM | 1980 nM | 5100 nM |  |  | CCc1c(-c2ccc(OC)c(OC)c2)[nH]c2ccc(C(=O)N3CCCC(C)(C)C3)cc12 [Example 32, (2-(3,4-dimethoxyphenyl)-3-ethyl-1H-indol-5-yl)(3,3-dimethylpiperidin-1-yl)methanone]
11 | 325 nM | 58 nM | 1800 nM |  |  | Cc1cc(-c2[nH]c3ccc(C(C)(C)C(=O)NC[C@H]4CC[C@H](N)CC4)cc3c2C(C)C)ccn1 [Example 172, N-(((1r,4r)-4-aminocyclohexyl)methyl)-2-(3-isopropyl-2-(2-methylpyridin-4-yl)-1H-indol-5-yl)-2-methylpropanamide]
12 | 143 nM | 113 nM | 2040 nM |  |  | Cc1cc(-c2[nH]c3ccc(C(C)(C)C(=O)N4CCC[C@H](N)C4)cc3c2C(C)C)ccn1 [Example 155, (S)-1-(3-aminopiperidin-1-yl)-2-(3-isopropyl-2-(2-methylpyridin-4-yl)-1H-indol-5-yl)-2-methylpropan-1-one]
13 | 210 nM | 280 nM | 718 nM |  |  | Cc1cc(-c2[nH]c3ccc(C(C)C(=O)N(C)C4CCCNC4)cc3c2C(C)C)ccn1 (stereo not drawn) [Example 210, 2-(3-isopropyl-2-(2-methylpyridin-4-yl)-1H-indol-5-yl)-N-methyl-N-(piperidin-3-yl)propanamide]
14 | 180 nM | 180 nM | 5230 nM |  |  | COc1ccc(-c2[nH]c3ccc(C(=O)N4CC5CN(CC(=O)N(C)C)CC5C4)cc3c2C(C)C)cc1OC (stereo not drawn) [Example 6, 2-{5-[2-(3,4-dimethoxyphenyl)-3-(propan-2-yl)-1H-indole-5-carbonyl]-octahydropyrrolo [3,4-c]pyrrol-2-yl}-N,N-dimethylacetamide]
15 | 49 nM | 30 nM | 375 nM |  |  | COc1ccc(-c2[nH]c3ccc(C(=O)N4CC5CNCC5C4)cc3c2C(C)C)cc1OC (stereo not drawn) [Example 1, 2-(3,4-dimethoxyphenyl)-5-{octahydropyrrolo[3,4-c]pyrrole-2-carbonyl}-3-(propan-2-yl)-1H-indole]
16 | 481 nM | 201 nM | 1830 nM |  |  | Cc1cc(-c2[nH]c3ccc(C(=O)N(C)Cc4ccccc4)cc3c2C(C)C)cc(C)n1 [Example 99, N-benzyl-2-(2,6-dimethylpyridin-4-yl)-3-isopropyl-N-methyl-1H-indole-5-carboxamide]
17 | 277 nM | 1710 nM | > 50000 nM |  |  | CCc1c(-c2ccc(OC)c(OC)c2)[nH]c2ccc(C(=O)NCCC(N)=O)cc12 [Example 68, N-(3-amino-3-oxopropyl)-2-(3,4-dimethoxyphenyl)-3-ethyl-1H-indole-5-carboxamide]
18 |  | 335 nM |  | 36 nM | 334 nM | Cc1cc(-c2[nH]c3ccc(C(=O)N4CC5CNCC5C4)cc3c2C(C)C)ccn1 (stereo not drawn) [Example 112, (hexahydropyrrolo[3,4-c]pyrrol-2(1H)-yl)(3-isopropyl-2-(2-methylpyridin-4-yl)-1H-indol-5-yl)methanone, HCl]
19 | 2.3 nM | 18 nM | 116 nM |  |  | Cc1cc(-c2[nH]c3ccc(C(=O)N4CC5CN(C)CC5C4)cc3c2C(C)C)cc(C)n1 (stereo not drawn) [Example 109, (2-(2,6-dimethylpyridin-4-yl)-3-isopropyl-1H-indol-5-yl)(5-methylhexahydropyrrolo[3,4-c]pyrrol-2(1H)-yl)methanone]
20 | 79 nM | 153 nM | > 50000 nM |  |  | COc1ccc(-c2[nH]c3ccc(C(=O)N(C)C)cc3c2C(C)C)cc1OC [Example 3, 2-(3,4-dimethoxyphenyl)-3-isopropyl-N,N-dimethyl-1H-indole-5-carboxamide]
21 | 897 nM | 1120 nM | 16800 nM |  |  | CCc1c(-c2ccc(OC)c(OC)c2)[nH]c2ccc(C(=O)N3CCCC(C(=O)N(CC)CC)C3)cc12 (stereo not drawn) [Example 33, 1-(2-(3,4-dimethoxyphenyl)-3-ethyl-1H-indole-5-carbonyl)-N,N-diethylpiperidine-3-carboxamide]
22 | 36 nM | 63 nM | 2900 nM |  |  | Cc1cc(-c2[nH]c3ccc(C(C)(C)C(=O)NC4CCC(N)CC4)cc3c2C(C)C)ccn1 (stereo not drawn) [Example 167, N-(4-aminocyclohexyl)-2-(3-isopropyl-2-(2-methylpyridin-4-yl)-1H-indol-5-yl)-2-methylpropanamide]
23 | 45 nM | 82 nM | > 50000 nM |  |  | Cc1cc(-c2[nH]c3ccc(C(=O)N4CCN(Cc5ncn(C)n5)CC4)cc3c2C(C)C)cc(C)n1 [Example 98, (2-(2,6-dimethylpyridin-4-yl)-3-isopropyl-1H-indol-5-yl)(4-((1-methyl-1H-1,2,4-triazol-3-yl)methyl)piperazin-1-yl)methanone]
24 | 46 nM | 31 nM | 2640 nM |  |  | Cc1cc(-c2[nH]c3ccc(C(C)(C)C(=O)N4CCCC5(CCCCC5N)C4)cc3c2C(C)C)ccn1 (stereo not drawn) [Example 152, 1-(7-amino-2-azaspiro[5.5]undecan-2-yl)-2-(3-isopropyl-2-(2-methylpyridin-4-yl)-1H-indol-5-yl)-2-methylpropan-1-one]
25 |  | 401 nM |  | 278 nM | 593 nM | COc1ccc(-c2[nH]c3ccc(C(=O)N4CC5CNCC5C4)cc3c2CC(F)(F)F)cc1OC (stereo not drawn) [Example 88, (2-(3,4-dimethoxyphenyl)-3-(2,2,2-trifluoroethyl)-1H-indol-5-yl)(hexahydropyrrolo[3,4-c]pyrrol-2(1H)-yl)methanone hydrochloride]
26 | 320 nM | 46 nM | > 50000 nM |  |  | Cc1cc(-c2[nH]c3ccc(C(=O)N(C)Cc4cccnc4)cc3c2C(C)C)cc(C)n1 [Example 100, 2-(2,6-dimethylpyridin-4-yl)-3-isopropyl-N-methyl-N-(pyridin-3-ylmethyl)-1H-indole-5-carboxamide]

Row | SMILES | IC50 (human TLR8; [1]) | IC50 (human TLR7) | IC50 (human TLR9; [2]) | IC50 (human TLR8) | IC50 (human TLR9)
27 | Cc1cc(-c2[nH]c3ccc(C(C)(C)C(=O)N4CC5CC(C4)C5N)cc3c2C(C)C)ccn1 (stereo not drawn) [Example 148, 1-(6-amino-3-azabicyclo[3.1.1]heptan-3-yl)-2-(3-isopropyl-2-(2-methylpyridin-4-yl)-1H-indol-5-yl)-2-methylpropan-1-one] | 79 nM | 88 nM | 2640 nM |  | 
28 | Cc1cc(-c2[nH]c3ccc(C(C)C(=O)NC4C[C@H]5CC[C@@H](C4)N5C)cc3c2C(C)C)ccn1 (stereo partly drawn) [Example 214, 2-(3-isopropyl-2-(2-methylpyridin-4-yl)-1H-indol-5-yl)-N-((1R,5S)-8-methyl-8-azabicyclo[3.2.1]octan-3-yl)propanamide] | 167 nM | 107 nM | 4670 nM |  | 
